From BindingDB's records for patent US10919885 (Yumanity Therapeutics, 2021)
pIC50: −log10 of the molar value.

Experiments:
Stearoyl-CoA desaturase = biological target: T1, Stearoyl-CoA desaturase (Homo sapiens, UniProt O00767); test: Compound Profiling Methods
T1 sequence (O00767 whole entry): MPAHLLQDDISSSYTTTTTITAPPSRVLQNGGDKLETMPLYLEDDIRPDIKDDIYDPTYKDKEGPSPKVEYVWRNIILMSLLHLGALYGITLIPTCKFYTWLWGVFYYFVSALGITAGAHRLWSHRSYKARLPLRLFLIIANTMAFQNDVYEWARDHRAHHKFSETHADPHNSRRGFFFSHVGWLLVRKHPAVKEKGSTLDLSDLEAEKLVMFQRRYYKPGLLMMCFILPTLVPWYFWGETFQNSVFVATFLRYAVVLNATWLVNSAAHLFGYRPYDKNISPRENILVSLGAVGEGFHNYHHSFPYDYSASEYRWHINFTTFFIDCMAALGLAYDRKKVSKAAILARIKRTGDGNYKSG
Description: (§1) Strains expressing SCD1 or SCD5 as the sole desaturase, the human SCD1 and SCD5 genes were used to evaluate inhibition of SCD1/SCD5 using reduced growth as a surrogate for SCD inhibition. These yeast strains express human SCD1 or SCD5 from a plasmid harbored in a strain in which the yeast OLE1 gene is deleted.All compound profiling experiments were performed using the same basic protocol. Yeast were cultured using standard techniques in complete synthetic media lacking uracil and containing yeast nitrogen base supplemented with 2% (w/v) glucose (SD-Ura) Starter cultures were inoculated in 3 mL SD-Ura media containing 0.01% tween and 0.2 mM palmitoleic and oleic acid. Cultures were incubated overnight in a 30° C. shaker incubator (225 rpm). Saturated morning cultures were centrifuged, washed in SD-Ura media lacking TWEEN-20 and fatty acids, and then diluted 1:20 in fresh SD-Ura media also lacking TWEEN-20 and fatty acids. […] Compound administration was performed in two separate steps. First, 15 μL of SD-Ura was dispensed into clear 384-well assay plates using a MULTIDROP Combi reagent dispenser. […] The cultures described above were centrifuged and washed with media lacking TWEEN-20 or oleic and palmitoleic acids. Cultures were then resuspended at a 2-fold concentrated OD600 of 0.02 (final OD600 of 0.0.01) in SD-Ura. […] Yeast growth was monitored by reading the OD600 of each well using a microplate reader (Perkin Elmer EnVision ). Data were analyzed as follows.

[1] = biological target: T2, Stearoyl-CoA desaturase 5 (Homo sapiens, UniProt Q86SK9); test: Compound Profiling Methods
T2 sequence (Q86SK9 whole entry): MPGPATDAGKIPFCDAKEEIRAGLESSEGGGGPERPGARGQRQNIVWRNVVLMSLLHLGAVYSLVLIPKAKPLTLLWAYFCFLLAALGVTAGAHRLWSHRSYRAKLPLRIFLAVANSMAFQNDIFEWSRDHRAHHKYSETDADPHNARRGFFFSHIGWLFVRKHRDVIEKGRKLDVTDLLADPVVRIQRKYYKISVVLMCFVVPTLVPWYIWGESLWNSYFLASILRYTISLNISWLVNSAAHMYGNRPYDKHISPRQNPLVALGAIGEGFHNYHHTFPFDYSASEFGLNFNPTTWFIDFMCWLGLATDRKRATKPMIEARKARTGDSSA
Description: as §1

## O=C(Nc1cnn(Cc2ccccc2)c1)c1cc(-c2ccc3c(c2)OCO3)on1 [US10919885, Compound No. 6]
Stearoyl-CoA desaturase
  pIC50: < 4.35

## O=C(Nc1cnn(Cc2cccc(Cl)c2)c1)c1cc(-c2ccccn2)on1 [US10919885, Compound No. 57]
Stearoyl-CoA desaturase
  pIC50: < 4.35
[1]
  pIC50: < 4.35

## CC(C)(C)OC(=O)N1CCC(NC(=O)c2cc(-c3ccco3)on2)CC1 [US10919885, Compound No. 287]
Stearoyl-CoA desaturase
  pIC50: < 4.35
[1]
  pIC50: < 4.35

## N#Cc1ccc(C2CCN(C(=O)c3cc(-c4ccc5c(c4)OCO5)on3)CC2)cc1 [US10919885, Compound No. 291]
Stearoyl-CoA desaturase
  pIC50: < 4.35
[1]
  pIC50: 5.32

## O=C(c1cc(-c2ccc3c(c2)OCO3)on1)N1CCC(c2ccc(F)c(F)c2)CC1 [US10919885, Compound No. 292]
Stearoyl-CoA desaturase
  pIC50: < 4.35
[1]
  pIC50: 5.74

## CC(C)(C)OC(=O)N1CCC2(CCN(C(=O)c3cc(-c4ccccc4)on3)C2)C1 (stereo not drawn) [US10919885, Compound No. 295]
Stearoyl-CoA desaturase
  pIC50: < 4.35
[1]
  pIC50: 4.53

## CC(C)(C)OC(=O)N1CCC(NC(=O)c2cc(-c3ccco3)on2)C1 (stereo not drawn) [US10919885, Compound No. 332]
Stearoyl-CoA desaturase
  pIC50: < 4.35
[1]
  pIC50: < 4.35

## COc1ccc(C2CCCN2C(=O)c2cc(-c3ccccc3OC)on2)cc1 (stereo not drawn) [US10919885, Compound No. 379]
Stearoyl-CoA desaturase
  pIC50: < 4.35

## O=C(c1noc2ccccc12)N1CCC[C@H]1c1ccccc1 [US10919885, Compound No. 438]
Stearoyl-CoA desaturase
  pIC50: < 4.35
[1]
  pIC50: < 4.35

## O=C(c1cc(-c2ccc3c(c2)CCO3)on1)N1CCCC1c1ccncn1 (stereo not drawn) [US10919885, Compound No. 440]
Stearoyl-CoA desaturase
  pIC50: < 4.35
[1]
  pIC50: < 4.35
